This assay deals with T1, human a-thrombin (Homo sapiens, UniProt P00734).
T1 construct: human a-thrombin
The experiment in a line: In vitro assay for determining proteinase inhibition (thrombin Ki). The format is biochemical. The following applies: 25° C., pH 7.4. On the procedure: In vitro assay for determining proteinase inhibition Assays of human a-thrombin and human trypsin were performed at 25° C. in 0.05M TRIS buffer pH 7.4, 0.15M NaCl, 0.1% PEG. Trypsin assays also contained 1 mM CaCl2. In assays wherein rates of hydrolysis of a p-nitroanilide (pna) substrate were determined, a Thermomax 96-well plate reader was used to measure (at 405 nm) the time dependent appearance of p-nitroaniline. […] Activity assays were performed by diluting a stock solution of substrate at least tenfold to a final concentration 0.5 Km into a solution containing enzyme or enzyme equilibrated with inhibitor. Times required to achieve equilibration between enzyme and inhibitor were determined in control experiments. Initial velocities of product formation in the absence (Vo) or presence of inhibitor (Vi) were measured. Assuming competitive inhibition, and that unity is negligible compared Km /[S], […] (where [S], [I], and e respectively represent the total concentrations, of substrate, inhibitor and enzyme), the equilibrium constant (Ki) for dissociation of the inhibitor from the enzyme can be obtained from the dependence of Vo /Vi on [I] shown in equation 1.

Molecules are shown by their SMILES. Read-outs that look alike come from different tables or passages of the source.

What is called Ki is a measure of affinity in units of concentration, obtained from inhibition or displacement. As for `N=C(N)N1CCN(S(=O)(=O)c2ccc(OCc3ccccc3)cc2)CC1` [N-((4-benzyloxy)phenylsulfonyl)-N'-aminomethyliminopiperazine], the Ki (Table 5, read-out: Ki(thr)) lay in the range of 1000 to 10000 nM.
With `CCc1cc(S(=O)(=O)N2CCN(C(=N)N)CC2)ccc1OCC1CCCCC1` [N-((4-cyclohexylmethyloxy)-3-ethyl-phenylsulfonyl)-N'-aminomethyliminopiperazine], the Ki (Table 5, read-out: Ki(thr)) lay within 100 to 1000 nM.
On to `CC(C)CCc1cc(CNc2ccncc2)ccc1OCC1CCCCC1` [drawing 160], for which, where the note is “Table 3, read-out: Ki(th)”, the Ki came out at 3200 nM.
In the case of `CC(C)CCc1cc(CNc2ccncc2)ccc1OCC1CCCCC1` [drawing 174], where the note is “Table 4, read-out: Ki (thr)”, the Ki was in the range of 1000 to 10000 nM.
On to `CCCc1cc(CNc2ccncc2)ccc1OCCC(C)C` [i-butyl], for which the Ki (Table 4, read-out: Ki (thr)) fell in the range of 1000 to 10000 nM.

Source of the values: US5872138A, “Thrombin inhibitors” (Merck & Co., Inc., priority 1997, dated 1999).
